The source of these data is ChEMBL document CHEMBL1201862, “PubChem BioAssay data set” (2004).

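Grown in 96-well plates, cells were treated for 48 hours with each compound at five concentrations. Insufficient inhibition: endpoint recorded as highest concentration tested. Abbreviation: GI50, concentration required for 50% inhibition of growth.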 Active and inactive are the calls of the source. Rule as the data show it: active = GI50 up to about 1.1 µM and inactive = higher.

Common to all, as to assay: NCI tumour cell line growth inhibition, 48 h
Assay [1] has as its system EKVX.
The subject of assay [2] is OVCAR-3.
Assay [3] relates to Malme-3M.
The test system of assay [4] is UO-31.
Assay [5] deals with BT-549.
Assay [6] concerns HOP-92.
For assay [7], the system named is LOX IMVI.
For assay [8], the system named is SK-MEL-5.
In assay [9] the test system is OVCAR-4.
Assay [10] concerns NCI-H522.
Assay [11] deals with RPMI-8226.
The subject of assay [12] is RXF 393.
The subject of assay [13] is HOP-62.
In assay [14] the test system is UACC-62.
The subject of assay [15] is SW-620.
Assay [16] has as its system HT-29.
In assay [17] the test system is SR.
Assay [18] concerns NCI-H226.
Assay [19] relates to KM-20L2.
The test system of assay [20] is MDA-MB-435.

Regarding `O=C1c2ccccc2C(=O)c2sc(Nc3ccccc3Cl)nc21`, the GI50 is 14.3 µM (inactive) in assay [1]; 10.7 µM (inactive) in assay [2]; 14.2 µM (inactive) in [3]; 10.6 µM (inactive) in assay [4]; 16 µM (inactive) in assay [5]; 13.2 µM (inactive) in assay [6]. The GI50 in assay [7] was 2.6 µM (inactive); in [8], 5.87 µM (inactive); in assay [9], 8.18 µM (inactive); in assay [10], 3.69 µM (inactive); in assay [11], 3.68 µM (inactive); in assay [12], 16.4 µM (inactive). For the same compound, the GI50 in assay [13] is 16.7 µM (inactive); in [14], 7.4 µM (inactive); in assay [15] it was 4.15 µM (inactive); in [16], 21.5 µM (inactive); in assay [17], 3.93 µM (inactive); in [18] it was 5.56 µM (inactive). Moreover, in assay [19], the GI50 was 20.7 µM (inactive).
In the case of `CN(C)CCNc1ccc(CO)c2sc3ccc(O)cc3c(=O)c12`, the GI50 was 5.13 µM (inactive) in [1]; 10.6 µM (inactive) in assay [2]; 2.66 µM (inactive) in [3]; 0.35 µM (active) in assay [4]; 2.62 µM (inactive) in assay [5]; 0.832 µM (active) in assay [6]. Besides, the GI50 in assay [7] was 1.11 µM (active); in [8] it was 1.29 µM (inactive); in [9] it was 4.63 µM (inactive); in [10], 1.32 µM (inactive); in [11], 1.69 µM (inactive); in [12] it was 1.96 µM (inactive). Also, the GI50 was 0.204 µM (active) in [13]; 1.34 µM (inactive) in assay [14]; 1.17 µM (inactive) in assay [15]; 2.3 µM (inactive) in assay [16]; < 0.0157 µM (active) in [17]; 1.15 µM (inactive) in assay [18]. The GI50 in [20] was 1.56 µM (inactive); in [19], 6.41 µM (inactive).
For the compound `COC(=O)N/N=C(/c1nc2ccc([N+](=O)[O-])cc2nc1O)C(O)c1ccc(OC)c(OC)c1` (centres undefined), the GI50 was > 100 µM (inactive) in assay [1]; > 54.7 µM (inactive) in [2]; > 100 µM (inactive) in assay [3]; > 100 µM (inactive) in assay [4]; > 100 µM (inactive) in assay [5]; > 100 µM (inactive) in assay [6]. Besides, the GI50 in [7] was 28.5 µM (inactive); in assay [8], 29.8 µM (inactive); in assay [9], > 100 µM (inactive); in assay [10] it was 40.5 µM (inactive); in assay [11], 41.9 µM (inactive); in assay [12], > 100 µM (inactive). The GI50 is > 60.5 µM (inactive) in assay [13]; > 100 µM (inactive) in assay [14]; > 100 µM (inactive) in assay [15]; > 72.9 µM (inactive) in assay [16]; 19.5 µM (inactive) in assay [17]; > 100 µM (inactive) in assay [18]. Also, the GI50 in [20] and in assay [19] was > 100 µM (inactive) in each case.
In the case of `CC[C@@H](C)[C@H]([C@H](CC(=O)N1CCC[C@@H]1[C@@H](OC)[C@H](C)C(=O)N[C@H](Cc1ccccc1)c1nccs1)OC)N(C)C(=O)[C@H](NC(=O)[C@@H](C(C)C)N(C)C)C(C)C`, the GI50 was 0.000277 µM (active) in assay [1]; 3.11e-05 µM (active) in [2]; 0.000624 µM (active) in assay [3]; 0.00206 µM (active) in assay [4]; < 0.01 µM (active) in [5]; 0.00104 µM (active) in assay [6]. Also, the GI50 is 0.000161 µM (active) in assay [7]; 2.51e-05 µM (active) in assay [8]; 0.000745 µM (active) in assay [9]; < 0.01 µM (active) in assay [10]; 0.000143 µM (active) in [11]; 0.000191 µM (active) in [12]. Moreover, the GI50 in assay [13] is 0.000193 µM (active); in assay [14], 0.000175 µM (active); in assay [15], 9.12e-05 µM (active); in assay [16] it was 2.24e-05 µM (active); in assay [17] it was 2.75e-05 µM (active); in assay [18], 0.000153 µM (active). The GI50 is < 0.01 µM (active) in assay [20] and 6.79e-05 µM (active) in assay [19].
Take `CC1CN1C(=O)NCCCCCCNC(=O)N1CC1C` (centres undefined): the GI50 in [1] was > 100 µM (inactive); in [2], > 100 µM (inactive); in [3] it was > 100 µM (inactive); in assay [4] it was 79.4 µM (inactive); in assay [5], > 100 µM (inactive); in assay [6] it was > 93.5 µM (inactive). Also, the GI50 was 34.3 µM (inactive) in assay [7]; > 100 µM (inactive) in assay [8]; > 100 µM (inactive) in assay [9]; > 100 µM (inactive) in assay [10]; > 100 µM (inactive) in [11]; > 100 µM (inactive) in [12]. Besides, the GI50 is 30.2 µM (inactive) in [13]; 31.8 µM (inactive) in assay [14]; > 100 µM (inactive) in assay [15]; > 100 µM (inactive) in assay [16]; 3.11 µM (inactive) in assay [17]; > 75.7 µM (inactive) in [18]. For the same compound, the GI50 in assay [20] and in [19] was > 100 µM (inactive) in each case.
